Several values for one entry are separate records, joined by “and”; a condition that tells them apart may be missing. Identical values can stand only once. Entries after “also recorded” stand apart in the source; their conditions may differ.
Experiments:
[1] = tested on: β-arrestin1 recruitment to B2R; experiment: BRET recruitment of β-arrestin1 to B2R; format: cell-based, human
Experimental: (§1) HEK293SL cells were seeded at a density of 7.5 × 10^5 cells per 100-mm dish and 24 h later, transiently transfected as such. For receptor internalization experiments, cells were transfected with 0.12 μg AT1R-RlucII, B2R-RlucII, or β2AR-RlucII and 0.48 μg of either rGFP-CAAX (to assess removal from the PM) or rGFP-FYVE (to assess accumulation in the endosomes). For β-arrestin recruitment assays, cells were transfected with 0.48 μg of receptor-YFP along with 0.12 μg of β-arrestin-RlucII. For β-arrestin/AP-2 binding experiments, cells were transfected with 1 μg Flag-AT1R, 1 μg β2-Adaptin-YFP, and 0.12 μg β-arrestin2-RlucII. For G protein activation, cells were transfected with 3 μg of sp-Flag-AT1R along with either 4.5 μg of the Gαq-polycistronic BRET sensor or 0.24 μg of the Gαi3-RlucII and 0.6 μg of GFP10-Gγ2 and Gβ1 sensors or 0.12 μg PKN-RBD-RlucII and 0.48 μg of rGFP-CAAX. For PKC activation, cells were transfected with 3 μg of sp-Flag-AT1R and 0.18 μg of the PKC sensor. For GTPase activation experiments, cells were transfected with 1 μg Flag-AT1R, 0.48 μg of rGFP-CAAX, and either 0.12 μg of GGA3-PBD-RlucII, PAK-CRIB-RlucII or Raf-RBD-RlucII. For biosensor validation experiments, cells were additionally transfected with 500 ng Flag-K-Ras-WT, Flag-K-Ras-G12V, Flag-K-Ras-SOS-CAAX, HA-ARF6-WT, HA-ARF6-T27N, Myc-Rac1-WT, Myc-Rac1-Q61L or Myc-Rac1-T17N. For PI3K/Akt activation experiments, cells were transfected with 0.48 μg of rGFP-CAAX and 0.12 μg of Akt (PH)-RlucII. After 18 h of transfection, the media was replaced and cells were divided for subsequent experiments. Cells were detached and seeded onto poly-L-ornithine-coated 96-well flat white bottom plates (BrandTech Scientific) at a density of 2.5 × 10^4 cells per well in media. The next day, cells were washed once with Tyrode’s buffer (140 mM NaCl, 2.7 mM KCl, 1 mM CaCl2, 12 mM NaHCO3, 5.6 mM D-glucose, 0.5 mM MgCl2, 0.37 mM NaH2PO4, 25 mM HEPES, pH 7.4) and left in Tyrode’s buffer. For kinetics of β-arrestin recruitment or β-arrestin binding to receptor and AP-2 experiments, cells were serum starved for 30 min, pretreated with 21 (50 µM) or Barbadin (100 µM) for 30 min, stimulated with 100 nM AngII or 1 µM BK and BRET signals were monitored at indicated times using a Victor X Light plate reader (PerkinElmer). Coelenterazine H (final concentration of 5 µM) was added 3–5 min prior to BRET measurements. Filter set was 460/80 nm and 535/30 nm for detecting the RlucII Renilla luciferase (donor) and YFP (acceptor) light emissions, respectively. The BRET ratio was determined by calculating the ratio of the light emitted by YFP over the light emitted by the RlucII. For G protein activation, cells were serum starved, pretreated with compounds for 30 min, stimulated with 100 nM AngII for 2 min (Gαq, Gαi3, and Rho sensors) or 5 min (PKC sensor). For the kinetics of GTPase and PI3K/Akt activation, cells were serum starved, pretreated with 21 (50 µM) or Wortmannin (200 nM) for 30 min, stimulated with ligand (100 nM AngII or 100 ng/ml EGF) and BRET signals were monitored at indicated times. For concentration-response curves, cells were serum-starved, pretreated with various concentrations of compounds for 30 min and stimulated with ligand (100 nM AngII, 1 µM BK, 10 µM Isoproterenol (Iso) or 100 ng/ml EGF) in Tyrode’s buffer for 30 min for receptor internalization, 10 min for ARF6, 2 min for Rac and Rho activation and 5 min for Ras activation and PI3K/Akt activation. BRET signals were monitored using a Synergy2 (BioTek) microplate reader and coelenterazine 400a (final concentrations of 5 µM) added 3–5 min prior to BRET measurements. Filter set was 410/80 nm and 515/30 nm for detecting the RlucII Renilla luciferase (donor) and rGFP/GFP10 (acceptor) light emissions, respectively. The BRET ratio was determined by calculating the ratio of the light emitted by rGFP/GFP10 over the light emitted by the RlucII.

[2] = tested on: β-arrestin2 recruitment to B2R; experiment: BRET recruitment of β-arrestin2 to B2R; format: cell-based, human
Experimental: as §1

Compound: CC(C)C(=O)N1CCN(c2ccc(NC(=O)c3cc4ccccc4o3)cc2Cl)CC1 [Compound 21]
- β-arrestin1 recruitment to B2R at the PM ([1]; 50 μM): did not preclude; also recorded: lack of inhibition
- BK-promoted BRET, Barr1 ([1]; Time 0 min): 0
- BK-promoted BRET, Barr1 ([1]; Time 5 min, listed as Comp 21): 0.04767 and 0.09406 and 0.08157
- BK-promoted BRET, Barr1 ([1]; Time 10 min, listed as Comp 21): 0.06518 and 0.1019 and 0.08421
- BK-promoted BRET, Barr1 ([1]; Time 15 min, listed as Comp 21): 0.06934 and 0.1045 and 0.09014
- BK-promoted BRET, Barr1 ([1]; Time 30 min, listed as Comp 21): 0.0673 and 0.09261 and 0.08457
- BK-promoted BRET, Barr1 ([1]; Time 60 min, listed as Comp 21): 0.06921 and 0.07361 and 0.07333
- β-arrestin2 recruitment to B2R at the PM ([2]; 50 μM): did not preclude
- BK-promoted BRET, Barr2 ([2]; Time 0 min): 0
- BK-promoted BRET, Barr2 ([2]; Time 5 min, listed as Comp 21): 0.1301 and 0.1897 and 0.1572
- BK-promoted BRET, Barr2 ([2]; Time 10 min, listed as Comp 21): 0.1662 and 0.2107 and 0.2145
- BK-promoted BRET, Barr2 ([2]; Time 15 min, listed as Comp 21): 0.1989 and 0.1955 and 0.2222
- BK-promoted BRET, Barr2 ([2]; Time 30 min, listed as Comp 21): 0.2065 and 0.1814 and 0.2273
- BK-promoted BRET, Barr2 ([2]; Time 60 min, listed as Comp 21): 0.2055 and 0.169 and 0.2219
